Data on one compound can be found in article PMC11585924, “Direct measurements of neurosteroid binding to specific sites on GABAA receptors” (British journal of pharmacology, 2024).

The target in this test is T1, α1β3 GABAA receptors (Homo sapiens, UniProt P14867+P28472).
T1 construct: expressed in transfected cells; host or cells: Xenopus laevis oocytes, cRNA injected 5:1 (α1:β3)
T1 sequence (P14867 28-456): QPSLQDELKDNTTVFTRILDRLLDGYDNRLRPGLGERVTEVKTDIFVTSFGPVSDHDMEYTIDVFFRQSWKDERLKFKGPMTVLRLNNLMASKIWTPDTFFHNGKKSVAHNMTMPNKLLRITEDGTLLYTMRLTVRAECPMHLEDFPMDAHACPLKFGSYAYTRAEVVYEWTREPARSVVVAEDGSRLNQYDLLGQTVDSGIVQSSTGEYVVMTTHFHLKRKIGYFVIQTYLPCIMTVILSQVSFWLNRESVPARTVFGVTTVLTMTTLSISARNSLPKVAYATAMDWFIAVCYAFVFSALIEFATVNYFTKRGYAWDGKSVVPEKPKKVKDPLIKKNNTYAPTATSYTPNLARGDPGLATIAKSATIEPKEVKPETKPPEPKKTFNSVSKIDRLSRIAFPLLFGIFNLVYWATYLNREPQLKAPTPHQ
T1 sequence (P28472 26-473): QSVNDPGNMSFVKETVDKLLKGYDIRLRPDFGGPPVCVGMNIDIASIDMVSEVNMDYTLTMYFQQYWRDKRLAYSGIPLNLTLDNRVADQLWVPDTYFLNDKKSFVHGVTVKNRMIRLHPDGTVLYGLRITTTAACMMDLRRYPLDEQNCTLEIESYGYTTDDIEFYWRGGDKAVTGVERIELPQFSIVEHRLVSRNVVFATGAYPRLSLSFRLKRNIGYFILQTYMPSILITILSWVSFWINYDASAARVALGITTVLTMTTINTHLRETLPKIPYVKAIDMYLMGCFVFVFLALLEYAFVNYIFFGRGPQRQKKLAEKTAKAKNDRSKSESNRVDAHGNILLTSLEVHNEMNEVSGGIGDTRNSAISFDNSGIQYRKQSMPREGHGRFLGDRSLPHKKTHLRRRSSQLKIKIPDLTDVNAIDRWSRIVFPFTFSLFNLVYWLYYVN
Briefly: Two-electrode voltage clamp of GABA-elicited currents in Xenopus oocytes. To be noted: low GABA; wild-type α1β3. The format is cell-based. How it is done:
Receptor expression and electrophysiological recordings were conducted as described in detail previously ([Sugasawa et al., 2020]). In brief, α1β3 GABAA receptors were expressed in oocytes from the African clawed frog (X. laevis). The wild-type α1 and β3 subunits were of human origin (Genbank accession numbers NM_000806.5 and NM_000814.5, respectively). The α1 clone containing the Q-to-L mutation to the classic neurosteroid binding site ([Hosie et al., 2006]) was of rat origin. (The glutamine residue in ELIC-α1GABAAR is Q242, whereas the corresponding residue in rat α1 is Q241. For simplicity, the residue is referred to as Q242 for both rat and ELIC-α1GABAAR.) The oocytes were purchased as quarter ovaries from Xenopus1 (Dexter, MI, USA). Following digestion in 2% w/v (mg·ml^−1) collagenase A, the oocytes were injected with a total of 12 ng cRNA per oocyte in a 5:1 ratio (α1:β3) and incubated at 15°C for 2–3 days prior to electrophysiological recordings in ND96 (96-mM NaCl, 2-mM KCl, 1.8-mM CaCl2, 1-mM MgCl2, 5-mM HEPES; pH 7.4) supplemented with 100 U·ml^−1 penicillin and 100 μg·ml^−1 streptomycin.
Electrophysiological recordings were conducted at ≈22°C using standard two-electrode voltage clamp. The voltage and current electrodes (G120F-4, OD = 1.20 mm, ID = 0.69 mm; Warner Instruments, Hamden, CT, USA) were filled with 3-M KCl and had resistances of 0.3–1 MΩ. The oocytes were clamped at −60 mV. The chamber (RC-1Z; Warner Instruments) was perfused with ND96 at 5–8 ml·min^−1. Solutions were gravity-applied. The current responses were amplified with an Axoclamp 900A (Molecular Devices, San Jose, CA, USA) or OC-725C amplifier (Warner Instruments), digitized with a Digidata 1200 series digitizer (Molecular Devices) and stored on PC hard drive using pClamp (Molecular Devices; RRID:SCR_011323). Current amplitudes were determined using Clampfit (Molecular Devices).
A standard experiment consisted of a several-minute long applications of GABA followed immediately by a co-application of GABA + modulator and a wash in GABA. For normalization purposes, each cell was exposed to the combination of saturating (1-mM) GABA + 50-μM propofol, assumed to fully activate all receptors in the cell ([Eaton et al., 2016]).

On to `CC(=O)[C@H]1CC[C@H]2[C@@H]3CC[C@H]4C[C@@H](O)CC[C@]4(C)[C@H]3CC[C@]12C` [Epi-AlloP, epi-allopregnanolone], for which the “potentiation of GABA-elicited currents” value is “do not”.
